Assay results: patent US11167015B2, “Arginine and its use as a T cell modulator” (INSTITUTE FOR RESEARCH IN BIOMEDICINE, priority 2016, dated 2021)

Assays:
human naïve CD4+ T cells = assay: Nitric oxide formation measured using DAF-FM diacetate; assay type: cell-based; settings: L-arginine-supplemented medium vs normal medium
Method: FIG. 9. Impact of L-citrulline on metabolism, Related to FIG. 3. (A) Human naïve CD4^+ T cells were activated in normal medium or in L-Arg medium. Nitric oxide formation was measured using DAF-FM diacetate at different time points. (B) T cells were activated in control medium (Ctrl, containing 1 mM L-arginine), or in medium supplemented with 3 mM L-arginine (L-Arg) or 3 mM L-citrulline (L-Cit) and harvested at different time points. […] Shown are only metabolites with a log 2 fold change >1 and an adjusted p value of <0.05. n=6 from one donor. Log 2 fold change between 0 and >+2 for L-Orn, L-Arg and L-Cit exemplarily indicated as “high”.

mouse CD8+ OT-I T cells = assay: Survival of activated OT-I T cells in vitro after IL-2 withdrawal; assay type: cell-based; settings: L-arginine-supplemented medium 4 days
From the text: FIG. 7. CD8+ T cells with increased L-arginine levels display improved anti-tumor activity in vivo. (A) Survival of activated mouse CD8+OT-I T cells (4 d) after IL-2 withdrawal. Data points represent the difference between the percentage of living T cells from cultures performed in L-Arg medium or Ctrl medium; n=11. (B) CD90.1+CD45.1/2+ and CD90.1+CD45.1+ naïve CD8+ OT-I T cells were activated for 4 days in Ctrl medium or L-Arg medium, respectively. Equal numbers of the congenically marked activated OT-I cells were co-transferred into Cd3e−/− mouse and the number of living T cells was measured in pooled spleen and lymph nodes at the indicated time points; n=3 at each time point. (C) Naïve CD8+ OT-I T cells were activated with CD3+CD28 antibodies in L-Arg medium or control (Ctrl) medium. Five days after activation, the percentage of Tcm-like cells (CD44hi, CD62L+) was measured by flow cytometry; n=15. (D) Naïve OT-I CD8+ T cells were activated in L-Arg medium or Ctrl medium and IFN-γ was quantified in culture supernatants after 5 days; n=15. (E) Same as in (D) but T cells were re-activated on day 5 day with PMA/Ionomycin; n=15. (F, G) B16.OVA melanoma cells were injected into C57BL/6 mice and tumors were allowed to grow for 10 days. […] Tumor burden (F) and survival (G) were assessed over time. […] In (G) *p<0.05 as determined by log-rank test comparison between curves. […]

natural killer cells = settings: oral administration, healthy volunteers; cited from earlier work
OT-I T cells = assay: Adoptive T cell transfer and survival experiment; assay type: in vivo; settings: activated 4 days in L-Arg medium, transfer into Cd3e−/− mice
Method: CD90.1^+ CD45.1/2^+ OT-I cells were activated with plate-bound antibodies to CD3 and CD28 in control medium. OT-I cells with a different congenic marker (CD90.1^+ CD45.1^+) were activated in L-arginine-supplemented medium. At day 4, equal cell numbers were injected into the tail vein of Cd3e^−/− host mice. To study the expansion of OT-I effector cells, host mice were sacrificed after 1, 3, 6, and 10 days post transfer and CD90.1^+ OT-I T cells from lymphoid organs (spleen and lymph nodes) were enriched with anti-CD90.1 micro beads (Miltenyi Biotec), stained and analysed by FACS. The following monoclonal antibodies were used α-CD8α (53-6.7), α-CD44 (1M7), α-CD62L (MEL-14), α-CD90.1 (OX-7), α-CD90.2 (30-H12), α-CD45.1 (A20), α-CD45.2 (104).

72 h-activated T cells = assay: Glucose consumption assay; assay type: cell-based, human; settings: L-arginine supplementation, 24 h in fresh medium
Method: FIG. 3. L-arginine globally influences metabolism of activated human T cells. […] Shown are only metabolites with a Log 2 fc>1 and an adjusted p value of <0.05; n=12 from two donors. Log 2 fold change between 0 and >+2 for L-Orn and L-Arg exemplarily indicated as “high”. (B) Differential analysis of the glycolytic pathway between naïve CD4^+ T cells cultured in L-Arg medium or Ctrl medium, 96 h after activation. Log 2 fold changes of proteins and metabolites are color-coded. […] 3-P-Glycerate and 2-P-Glycerate could not be distinguished as they have the same mass. (C) 72 h-activated T cells were plated in fresh medium and glucose consumption was determined enzymatically after 24 h; n=9 from three donors. (D) Seahorse experiment performed with activated (96 h) T cells from one donor. Oligomycin was injected after 56 min, FCCP after 96 min, and antimycin (to inhibit the respiratory chain) after 136 min. Data are representative of 5 independent experiments with different donors. (E,F) Relative oxygen consumption rate (OCR) (E) and relative spare respiratory capacity (SRC) (F) of activated (96 h) T cells; n=12 from three donors. ****p<0.0001 (Student's t-test).
The amount of glucose in media was determined using the Glucose (GO) Assay Kit from Sigma. Consumption was calculated as the difference between glucose content in reference medium (co-incubated medium without cells) and cell supernatants.

activated CD8+ T cells = assay: IL-2 withdrawal assay and assessment of cell viability, CD8+ T cells; assay type: cell-based, human; settings: L-arginine supplementation, 5 days after IL-2 withdrawal

N=C(N)NCCC[C@H](N)C(=O)O [L-arginine]
nitric oxide (human naïve CD4+ T cells): did not increase | survival capacity of OT-I T cells in vitro (mouse CD8+ OT-I T cells): higher survival capacity | numbers and activity of natural killer cells (natural killer cells): enhance the numbers and activity of natural killer cells | survival capacity of OT-I T cells in vivo (OT-I T cells): higher survival capacity | glucose consumption (72 h-activated T cells): consumed less glucose | survival of activated CD8+ T cells in the absence of exogenous cytokines (activated CD8+ T cells): significantly increased
